Test results reported in PubChem BioAssay (NCI).
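GI50 is the concentration that inhibits growth by half. TGI: total growth inhibition.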

Experiments:
Assay in all cases: NCI-60 cell line screen, 384-well format
UACC-62 melanoma = tested on: UACC-62 melanoma
SNB-75 CNS = tested on: SNB-75 CNS
NCI-H522 lung = tested on: NCI-H522 lung
KM12 colon = tested on: KM12 colon
SF-539 CNS = tested on: SF-539 CNS
786-0 renal = tested on: 786-0 renal
SR leukemia = tested on: SR leukemia
COLO 205 colon = tested on: COLO 205 colon
BT-549 breast = tested on: BT-549 breast
HS 578T breast = tested on: HS 578T breast
LOX IMVI melanoma = tested on: LOX IMVI melanoma
HCC-2998 colon = tested on: HCC-2998 colon
MCF7 breast = tested on: MCF7 breast

Row | SMILES | GI50 (UACC-62 melanoma) [µM] | TGI (UACC-62 melanoma) [µM] | GI50 (SNB-75 CNS) [µM] | TGI (SNB-75 CNS) [µM] | GI50 (NCI-H522 lung) [µM] | TGI (NCI-H522 lung) [µM] | GI50 (KM12 colon) [µM] | TGI (KM12 colon) [µM] | GI50 (SF-539 CNS) [µM] | TGI (SF-539 CNS) [µM] | GI50 (786-0 renal) [µM] | TGI (786-0 renal) [µM] | TGI (SR leukemia) [µM] | GI50 (COLO 205 colon) [µM] | TGI (COLO 205 colon) [µM] | GI50 (BT-549 breast) [µM] | TGI (BT-549 breast) [µM] | GI50 (HS 578T breast) [µM] | TGI (HS 578T breast) [µM] | GI50 (LOX IMVI melanoma) [µM] | also measured
1 | C[C@@H]1CN(C(=O)c2ccc(NC(=O)c3cc(O[C@H](C)c4c(Cl)ccc(F)c4Cl)c(N)nn3)cc2)C[C@H](C)N1 | 1.34 | 2.89 | 2.21 | 4.14 | 1.99 | 7.16 | 0.0407 | 5.37 | 2.02 | 3.99 | 1.86 | 3.5 | 0.0109 | 1.33 | 3.94 | 2.39 | 4.27 | 1.8 | 3.44 | 1.26 | TGI (LOX IMVI melanoma): 2.52 µM; GI50 (HCC-2998 colon): 2.14 µM; TGI (HCC-2998 colon): 7.68 µM; GI50 (MCF7 breast): 0.845 µM; TGI (MCF7 breast): 4.77 µM
2 | O=C1CC(c2ccc(N3CCOCC3)cc2)(c2ccsc2)NC(=O)C1Sc1ccccc1Cl (stereo unspecified) | 12.7 | > 100 | > 100 | > 100 | 6.42 | > 100 | > 57.6 | > 100 | 23.3 | > 100 | 2.71 | > 21.3 | 1.74 | > 100 | > 100 | 3.71 | 28.3 | 1.76 | 3.69 | 35.9 | GI50 (SR leukemia): 0.692 µM; TGI (LOX IMVI melanoma): > 100 µM; GI50 (HCC-2998 colon): > 100 µM; TGI (HCC-2998 colon): > 100 µM; GI50 (MCF7 breast): > 73.7 µM; TGI (MCF7 breast): > 100 µM
